Data published in US20260008760A1, “DIPEPTIDYL PEPTIDASE 1 INHIBITORS AND USES THEREOF” (Insmed Incorporated, priority 2024, published 2026).

Legend:
DPP1 in HL-60 cells [1] = target: T1, DPP1 in HL-60 cells (Homo sapiens, UniProt P53634); test: DPP1 Cell Single-Point Percent Inhibition Testing; type: cell-based; set-up: host or cells: HL-60 cells; details: final compound concentration 5 nM, n = 1
Protocol: Example 100. DPP1 Cell Single-Point Percent Inhibition Testing
HL-60 cells (ATCC; Manassas, VA) were maintained in RPMI-1640 supplemented with 20% heat-inactivated FBS and 1× Antibiotic Antimycotic (Cytiva; Marlborough, MA). Media was changed every three to four days and cells were not allowed to exceed 1×10^6 cells per mL. Prior to assay, cells were collected by centrifugation at 500 rcf for 3 minutes, resuspended in RPMI (with no additional supplements) and counted. Cells were diluted in RPMI to a concentration of 5×10^5 live cells per mL and transferred to black 96-well plates for assay, 60 μL per well. Test articles were diluted to 25 nM in RPMI plus 0.5% DMSO, and 20 μL was added to each assay well. Compound was allowed to pre-incubate with cells with gentle shaking at 100 rpm for 60 minutes at 37° C. in a cell culture incubator maintained at 5% CO2, after which 20 μL of 500 μM H-Gly-Phe-AFC cell-permeable substrate (MP Biomedicals; Solon, OH) in RPMI was added to each well, giving final compound concentration of 5 nM, a final substrate concentration of 100 μM and a final DMSO concentration of 0.1%. Plates were returned to the incubator with shaking at 100 rpm for 30 minutes, after which fluorescence was measured at Excitation/Emission 400/505 nm. Percent Inhibition was calculated from RFU values by first subtracting background values (wells in which RPMI was substituted for cells) from each well, and then subtracting background-subtracted RFU derived from wells that received a final concentration of 10 μM brensocatib. This value represents the non-specific substrate cleavage from the HL-60 cells, and the remaining RFU should theoretically be solely the contribution of DPP1 enzyme activity. The final percent inhibition value was calculated for each test article based on remaining RFU compared to RFU from wells that received only vehicle control.

human DPP1 enzyme [2] = target: T2, human DPP1 enzyme (Homo sapiens, UniProt P53634); test: Human DPP1 Enzyme Single-Point Percent Inhibition Testing (HL-60 lysate); type: biochemical; set-up: A crude lysate of HL-60 cells (ATCC; Manassas, VA) was used as a source of human DPP1 enzyme; host or cells: HL-60 cells (crude lysate); details: final compound concentration of 10 nM, 400 μM H-Gly-Arg-AMC, n = 1
Protocol: Example 98. Human DPP1 Enzyme Single-Point Percent Inhibition Testing
A crude lysate of HL-60 cells (ATCC; Manassas, VA) was used as a source of human DPP1 enzyme in the assay. Lysate was prepared in 1% Triton X-100 in PBS at a concentration of 20,000 live cells per μL of lysis buffer and was centrifuged at 16,000 rcf for 10 minutes at 4° C., after which supernatant was collected and flash-frozen in liquid nitrogen. Test articles were applied to human DPP1 enzyme in Assay Buffer (25 mM MES pH 6.0, 50 mM NaCl, 5 mM DTT) in a total reaction volume of 125 μL. 25 μL of compound diluted to 50 nM in Assay Buffer plus 5% DMSO was first added to 50 μL of HL-60 lysate diluted to contain a DPP1 enzyme concentration of roughly 1 ng/μL and allowed to pre-incubate for 10 minutes at 37° C. after which 50 μL of 1000 μM H-Gly-Arg-AMC substrate (Bachem; St. Torrance, CA) was added, giving final compound concentration of 10 nM, a final substrate concentration of 400 μM and a final DMSO concentration of 1%. Substrate cleavage was measured for 90 minutes at 37° C., with fluorescence at Excitation/Emission 350/450 nm measured every 5 minutes. DPP1 concentration was interpolated based on its activity relative to a standard curve of activated human recombinant DPP1 enzyme. Percent inhibition at 10 nM was calculated for each test article based on remaining DPP1 activity compared to enzyme activity in wells that received only vehicle control.
Target sequence in this assay (P53634 25-463): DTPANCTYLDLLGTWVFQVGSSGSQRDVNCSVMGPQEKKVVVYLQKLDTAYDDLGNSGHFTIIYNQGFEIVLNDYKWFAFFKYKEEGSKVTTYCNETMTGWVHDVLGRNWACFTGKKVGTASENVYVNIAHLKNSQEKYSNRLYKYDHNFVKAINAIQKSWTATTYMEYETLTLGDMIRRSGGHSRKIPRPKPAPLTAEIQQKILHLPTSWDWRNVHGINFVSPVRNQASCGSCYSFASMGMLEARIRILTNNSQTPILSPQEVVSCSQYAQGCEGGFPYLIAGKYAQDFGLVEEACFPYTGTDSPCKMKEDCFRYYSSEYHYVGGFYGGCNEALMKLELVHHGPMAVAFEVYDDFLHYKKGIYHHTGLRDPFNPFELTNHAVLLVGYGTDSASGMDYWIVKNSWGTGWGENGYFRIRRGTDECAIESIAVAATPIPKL

DPP1 in HL-60 cells [3] = target: T1, DPP1 in HL-60 cells; test: DPP1 Cell IC50 assay; type: cell-based; set-up: host or cells: HL-60 cells; details: 60 min pre-incubation, H-Gly-Phe-AFC substrate, average of n runs, read-out: Avg. IC50 (DPP1 Cell IC50 value ranges)
Procedure, shortened: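 Intracellular DPP1 activity read as AFC fluorescence (Ex/Em 400/505 nm) after 30 min with H-Gly-Phe-AFC (500 μM stock), following 60 min compound pre-incubation at 37° C with HL-60 cells at 5×10^5 live cells per mL in PBS. IC50 by 4-parameter fit against DMSO-only controls.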

human DPP1 enzyme [4] = target: T2, human DPP1 enzyme; test: Human DPP1 Enzyme IC50 Assay; type: biochemical; set-up: was first proteolytically processed into its mature form using recombinant human cathepsin L; purchased R&D Systems; details: activated recombinant human DPP1, 400 μM H-Gly-Arg-AMC, 10 minutes pre-incubation at 37° C., pH 6.0; average of n runs; read-out: Avg. IC50 (Human DPP1 enzyme IC50 value ranges)
Procedure, shortened: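 IC50 came from a four-parameter fit of activity relative to no-compound control, with fluorescence (Ex 350/Em 450 nm) read every 5 min for 90 min at 37 °C using 400 μM final H-Gly-Arg-AMC. Cathepsin L-matured human recombinant DPP1 was preincubated 10 min with compound at pH 6.0 (MES, DTT, 1% DMSO).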
Target sequence in this assay (P53634 25-134 limits assumed): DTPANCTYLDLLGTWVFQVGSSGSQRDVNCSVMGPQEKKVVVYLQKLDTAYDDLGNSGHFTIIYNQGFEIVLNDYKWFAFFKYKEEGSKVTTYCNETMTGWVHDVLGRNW
Target sequence in this assay (P53634 231-394 limits assumed): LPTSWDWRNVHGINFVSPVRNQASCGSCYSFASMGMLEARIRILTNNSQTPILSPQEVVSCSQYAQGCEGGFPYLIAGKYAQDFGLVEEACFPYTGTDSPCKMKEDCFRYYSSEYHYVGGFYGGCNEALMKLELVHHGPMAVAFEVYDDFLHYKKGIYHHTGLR
Target sequence in this assay (P53634 395-463 limits assumed): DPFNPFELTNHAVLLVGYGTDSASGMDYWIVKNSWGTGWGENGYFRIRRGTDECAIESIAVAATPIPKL

T1 sequence (P53634 25-463): as the sequence (P53634 25-463) above

| Structure (SMILES) | inhibition at 0.005 µM (DPP1 in HL-60 cells [1]) [%] | inhibition at 0.01 µM (human DPP1 enzyme [2]) [%] | IC50 (DPP1 in HL-60 cells [3]) [nM] | IC50 (human DPP1 enzyme [4]) [nM] |
| --- | --- | --- | --- | --- |
| CO[C@@H]1CCNC[C@@H](C(=O)N[C@H](C#N)Cc2ccc(-c3ccc4c(c3)C3(CCN(C)C3)OC4=O)cc2F)OC1 (some centres unmarked) [Compound F14] | ≤ 76.5 | ≥ 66.7 | – | – |
| CN1CCN(Cc2ccc(-c3ccc(C[C@@H](C#N)NC(=O)[C@@H]4CNCCCCO4)c(F)c3)cc2)CC1 [Compound 45] | ≤ 76.5 | ≤ 40 | – | – |
| CO[C@H]1CCO[C@H](C(=O)N[C@H](C#N)Cc2ccc(-c3ccc4c(c3)C3(CN(C)C3)OC4=O)cc2F)CNC1 [Compound F26] | ≤ 76.5 | ≥ 66.7 | – | – |
| CO[C@H]1CCO[C@H](C(=O)N[C@H](C#N)Cc2ccc(-c3ccc4c(c3)C3(CCN(C5COC5)CC3)OC4)cc2)CNC1 [Compound F22] | ≤ 76.5 | 40 to 66.7 | – | – |
| C[C@@H]1NC[C@@H](C(=O)N[C@H](C#N)Cc2ccc(-c3ccc4nnn(C)c4c3)cc2F)OC[C@@H]1O [Compound H32] | ≤ 76.5 | 40 to 66.7 | – | – |
| N#CC(Cc1cc2c(cc1F)-c1cc(C3COC3)c(F)cc1CO2)NC(=O)[C@@H]1CNCCCO1 (some centres unmarked) [Compound B31] | 76.5 to 93.9 | 40 to 66.7 | – | – |
| CO[C@H]1CCO[C@H](C(=O)N[C@H](C#N)Cc2ccc(-c3cc4c(C)ncc(C)n4c3)cc2)CNC1 [Compound A128] | 76.5 to 93.9 | 40 to 66.7 | – | – |
| N#C[C@H](Cc1ccc(-c2ccc3c(n2)CCCN3)cc1)NC(=O)[C@@H]1CNCCCO1 [Compound A117] | ≤ 76.5 | ≤ 40 | – | – |
| COC1CNC[C@@H](C(=O)N[C@H](C#N)Cc2ccc(-c3ccc4cnn(C5CCN(C)CC5)c4c3)cc2)OC1 (some centres unmarked) [Compound H9] | ≤ 76.5 | ≥ 66.7 | – | – |
| COC1CNC[C@@H](C(=O)N[C@H](C#N)Cc2ccc(-c3cc4c(C)ncc(C)n4c3)cc2)OC1 (some centres unmarked) [Compound A125] | ≥ 93.9 | ≥ 66.7 | – | – |
| CO[C@H]1CCO[C@H](C(=O)N[C@H](C#N)Cc2ccc(-c3ccc4c(c3)C3(CCN(C)C3)OC4=O)cc2F)CNC1 (some centres unmarked) [Compound F27] | ≤ 76.5 | ≥ 66.7 | – | – |
| Cc1ncc(C)n2cc(-c3ccc(C[C@@H](C#N)NC(=O)[C@@H]4CN[C@@H](C)[C@H](O)CO4)cc3)cc12 [Compound A131] | ≤ 76.5 | ≥ 66.7 | – | – |
| COC1CNC[C@@H](C(=O)N[C@H](C#N)Cc2ccc(-c3ccc4nnn(C)c4c3)cc2F)OC1 (some centres unmarked) [Compound H14] | 76.5 to 93.9 | ≥ 66.7 | – | – |
| Cc1nc(C)c2cc(-c3ccc(C[C@@H](C#N)NC(=O)[C@@H]4CN[C@@H](C)[C@@H](O)CO4)cc3)cn2c1C [Compound A135] | ≤ 76.5 | ≤ 40 | – | – |
| Cc1cn2cc(-c3cc4sc(C[C@H](C#N)NC(=O)[C@@H]5CNCCCCO5)cc4s3)cc2c(C)n1 (single isomer, unassigned) [Compound A31] | – | – | > 2.5 | > 15 |
| N#C[C@H](Cc1ccc(-c2ccc(-c3nnc(N)s3)o2)cc1)NC(=O)[C@@H]1CNCCCO1 [Compound D1, (2S)—N-[(1S)-2-{4-[5-(5-amino-1,3,4-thiadiazol-2-yl)furan-2-yl]phenyl}-1-cyanoethyl]-1,4-oxazepane-2-carboxamide] | – | – | > 2.5 | > 15 |
| CO[C@@H]1CCNC[C@@H](C(=O)N[C@H](C#N)Cc2ccc(-c3ccc4c(n3)CCCN4)cc2)OC1 [Compound A33, (2S,7R)—N—((S)-1-cyano-2-(4-(5,6,7,8-tetrahydro-1,5-naphthyridin-2-yl)phenyl)ethyl)-7-methoxy-1,4-oxazocane-2-carboxamide] | – | – | > 2.5 | < 5 |
| CO[C@H]1CCO[C@H](C(=O)NC(C#N)Cc2cc3c(cc2F)-c2ccc(C#N)cc2CO3)CNC1 (single isomer, unassigned) [Compound B14] | – | – | > 2.5 | > 15 |
| N#C[C@H](Cc1ccc(-c2ccc3c(c2)[C@]2(CCCN(C#N)C2)SC3)cc1)NC(=O)[C@@H]1CNCCCO1 [Compound I15] | – | – | > 2.5 | > 15 |
| Cn1ncc2cc3c(cc21)-c1cc(F)c(C[C@@H](C#N)NC(=O)[C@@H]2CNCCCO2)cc1OC3 [Compound C33] | – | – | 1 to 2.5 | < 5 |
| CO[C@@H]1CCNC[C@@H](C(=O)N[C@H](C#N)Cc2ccc(-c3ccc4c(c3)CCC(=O)N4C)cc2)OC1 [Compound A145] | – | – | 1 to 2.5 | < 5 |
| Cn1c(=O)oc2cc3c(cc21)-c1cc(F)c(CC(C#N)NC(=O)[C@@H]2CNCCCCO2)cc1OC3 (stereo partly drawn) [Compound C5, (2S)—N-[(1S)-1-cyano-2-{4-fluoro-15-methyl-14-oxo-8,13-dioxa-15-azatetracyclo[8.7.0.0^{2,7}0.0^{12,16}]heptadeca-1(10),2,4,6,11,16-hexaen-5-yl}ethyl]-1,4-oxazocane-2-carboxamide] | – | – | 1 to 2.5 | < 5 |
| CO[C@@H]1CCNC[C@@H](C(=O)NC(C#N)Cc2cc3cc(-c4cc5c(C)nc(C)cn5c4)ccc3s2)OC1 (single isomer, unassigned) [Compound A52] | – | – | > 2.5 | > 15 |
| N#C[C@H](Cc1ccc(-c2cc3n(c2)CCCNC3=O)cc1)NC(=O)[C@@H]1CNCCCO1 [Compound A12, (2S)—N-[(1S)-1-cyano-2-(4-{1-oxo-2H,3H,4H,5H-pyrrolo[1,2-a][1,4]diazepin-8-yl}phenyl)ethyl]-1,4-oxazepane-2-carboxamide] | – | – | > 2.5 | > 15 |
| CO[C@H]1CCO[C@H](C(=O)N[C@H](C#N)Cc2ccc(-c3cc4c(C)nc(C)cn4c3)cc2)CNC1 [Compound A42, (2S,6S)—N-[(1S)-1-cyano-2-(4-{1,3-dimethylpyrrolo[1,2-a]pyrazin-7-yl}phenyl)ethyl]-6-methoxy-1,4-oxazocane-2-carboxamide] | – | – | 1 to 2.5 | > 15 |
| CO[C@H]1CCO[C@H](C(=O)N[C@H](C#N)Cc2ccc(-c3ccc4c(c3)CCC(=O)N4C)cc2F)CNC1 [Compound A153] | – | – | < 1 | < 5 |
| N#C[C@H](Cc1ccc(-c2ccc3c(c2)C2(CCNCC2)CC3=O)cc1)NC(=O)[C@@H]1CNCCCO1 [Compound 30, (2S)—N-[(1S)-1-cyano-2-(4-{3-oxo-2H-spiro[indene-1,4′-piperidin]-6-yl}phenyl)ethyl]-1,4-oxazepane-2-carboxamide] | – | – | > 2.5 | 5 to 15 |
| CO[C@H]1CCO[C@H](C(=O)N[C@H](C#N)Cc2ccc(-c3ccc4c(c3)CCC(=O)N4C)cc2)CNC1 [Compound A147] | – | – | 1 to 2.5 | 5 to 15 |
